Common to all, as to assay type: cell-based
Test [1] deals with T1, SSTR5 (Homo sapiens, UniProt P35346).
T1 construct: expressed in transfected cells
Description: cAMP functional agonist assay, CHO cells expressing SSTR5. The following applies: CHO cells stably expressing SSTR5, cAMP. In a few lines:
(§1)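 CHO cells stably expressing a single somatostatin receptor subtype, grown to 85–100% confluence in F12-Ham's with 10% donor calf serum and hygromycin. Agonism assessed as a decrease in intracellular cAMP via Gi coupling.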

Test [2] deals with SSTR3 (UniProt P32745). Description: cAMP functional agonist assay, CHO cells expressing SSTR3. To be noted: CHO cells stably expressing SSTR3, cAMP. In a few lines: as §1
Chain of SSTR3 (P32745 whole entry): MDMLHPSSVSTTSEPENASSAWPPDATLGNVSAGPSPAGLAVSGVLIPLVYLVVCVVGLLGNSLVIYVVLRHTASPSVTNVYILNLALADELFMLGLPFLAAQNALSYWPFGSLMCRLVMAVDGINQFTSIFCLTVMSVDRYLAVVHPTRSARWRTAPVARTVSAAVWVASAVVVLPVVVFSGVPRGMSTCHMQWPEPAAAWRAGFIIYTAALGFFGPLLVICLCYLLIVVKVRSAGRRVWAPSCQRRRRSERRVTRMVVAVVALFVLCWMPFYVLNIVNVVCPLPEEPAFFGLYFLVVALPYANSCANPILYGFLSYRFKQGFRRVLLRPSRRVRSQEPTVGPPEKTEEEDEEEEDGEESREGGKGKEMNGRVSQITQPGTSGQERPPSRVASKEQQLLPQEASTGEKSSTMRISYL
Test [3] has as its target T2, human somatostatin receptor subtype 2a (Homo sapiens, UniProt P30874).
T2 construct: expressed in transfected cells
Description: cAMP assay for SSTR2a agonists (HTRF cAMP kit, NKH-477 stimulated). To be noted: CHO cells stably expressing human SSTR2a, 1.6 μM NKH-477. In general terms: Cyclic AMP is a second messenger, typically raised through Gs and lowered through Gi signalling.

The target in test [4] is T3, SSTR1 (Homo sapiens, UniProt P30872).
T3 construct: expressed in transfected cells
T3 sequence (P30872 whole entry): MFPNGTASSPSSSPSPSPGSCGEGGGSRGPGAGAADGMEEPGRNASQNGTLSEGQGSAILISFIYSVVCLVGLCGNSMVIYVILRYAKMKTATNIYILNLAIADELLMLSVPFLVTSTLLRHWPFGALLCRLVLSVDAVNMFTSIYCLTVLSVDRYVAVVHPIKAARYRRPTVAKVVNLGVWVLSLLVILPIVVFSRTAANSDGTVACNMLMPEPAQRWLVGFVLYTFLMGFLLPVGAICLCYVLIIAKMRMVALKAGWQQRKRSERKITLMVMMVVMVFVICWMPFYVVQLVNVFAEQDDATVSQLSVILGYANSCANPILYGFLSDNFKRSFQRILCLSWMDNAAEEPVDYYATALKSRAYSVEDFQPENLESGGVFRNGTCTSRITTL
As to the kind of experiment: cAMP functional agonist assay, CHO cells expressing SSTR1. The following applies: CHO cells stably expressing SSTR1, cAMP; read-out: SSTR1 EC50. In a few lines:
(§2)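 CHO cells stably expressing the human or rodent somatostatin receptor subtype. Agonism measured as decrease in intracellular cAMP via Gi coupling.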

The target of test [5] is T4, SSTR4 (Homo sapiens, UniProt P31391).
T4 construct: expressed in transfected cells
T4 sequence (P31391 whole entry): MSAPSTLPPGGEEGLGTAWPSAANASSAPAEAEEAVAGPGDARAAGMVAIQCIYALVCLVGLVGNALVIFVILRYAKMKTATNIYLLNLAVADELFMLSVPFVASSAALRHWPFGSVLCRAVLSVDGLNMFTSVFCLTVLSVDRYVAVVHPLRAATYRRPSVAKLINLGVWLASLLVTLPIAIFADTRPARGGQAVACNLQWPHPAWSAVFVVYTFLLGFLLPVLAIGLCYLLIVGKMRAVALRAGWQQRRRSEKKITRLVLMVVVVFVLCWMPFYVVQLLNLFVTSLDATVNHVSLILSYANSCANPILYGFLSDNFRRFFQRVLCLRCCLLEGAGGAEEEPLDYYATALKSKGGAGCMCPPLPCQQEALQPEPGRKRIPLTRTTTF
Description: cAMP functional agonist assay, CHO cells expressing SSTR4. To be noted: CHO cells stably expressing SSTR4, cAMP; read-out: SSTR4 EC50. In a few lines: as §2

The structures appear in SMILES notation.

T2 sequence (P30874 whole entry): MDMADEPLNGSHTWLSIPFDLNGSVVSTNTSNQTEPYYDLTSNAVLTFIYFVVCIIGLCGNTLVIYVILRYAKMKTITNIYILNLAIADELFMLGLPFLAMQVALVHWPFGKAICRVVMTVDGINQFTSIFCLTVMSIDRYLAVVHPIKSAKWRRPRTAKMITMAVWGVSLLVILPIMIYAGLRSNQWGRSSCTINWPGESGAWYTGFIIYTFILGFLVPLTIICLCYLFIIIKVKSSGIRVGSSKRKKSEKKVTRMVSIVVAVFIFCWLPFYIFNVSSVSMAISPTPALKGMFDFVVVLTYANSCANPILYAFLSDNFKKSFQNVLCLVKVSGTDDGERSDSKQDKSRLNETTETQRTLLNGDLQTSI
T1 sequence (P35346 whole entry): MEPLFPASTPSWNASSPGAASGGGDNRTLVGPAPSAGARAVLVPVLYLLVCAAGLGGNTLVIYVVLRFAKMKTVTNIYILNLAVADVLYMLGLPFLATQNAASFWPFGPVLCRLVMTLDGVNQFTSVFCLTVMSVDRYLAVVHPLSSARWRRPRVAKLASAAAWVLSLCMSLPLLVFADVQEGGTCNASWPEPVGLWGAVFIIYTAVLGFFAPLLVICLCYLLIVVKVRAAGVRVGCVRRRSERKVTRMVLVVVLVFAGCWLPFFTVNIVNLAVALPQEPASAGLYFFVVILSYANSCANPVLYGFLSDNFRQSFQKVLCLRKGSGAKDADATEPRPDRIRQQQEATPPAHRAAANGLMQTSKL

Take `CC[C@H](N)CN(C)Cc1c(-c2cc(C)cc(Cl)c2)cnc2ncn(-c3cc(O)cc(C(F)(F)F)c3)c(=O)c12` [Compound A-65, 5-({[(2S)-2-aminobutyl](methyl)amino}methyl)-6-(3-chloro-5-methylphenyl)-3-[3-hydroxy-5-(trifluoromethyl)phenyl]-3H,4H-pyrido[2,3-d]pyrimidin-4-one]: the EC50 (as a rule, the concentration giving half of the maximal effect) was 100 to 10000 nM in test [1]; less than 100 nM in test [2]; less than 100 nM in test [3]; 100 to 10000 nM in test [4]; less than 100 nM in test [5].
Take `CCOC(=O)CNCCN(CC)Cc1c(-c2cc(C)cc(C)c2)cnc2ncn(-c3cccc(O)c3)c(=O)c12` [Compound A-68]: the EC50 is greater than 10000 nM in test [1]; greater than 10000 nM in test [2]; 100 to 10000 nM in test [3]; greater than 10000 nM in test [4]; 100 to 10000 nM in test [5].
For the compound `Cc1cc(C)c(F)c(-c2cnc3ncn(-c4cccc(O)c4)c(=O)c3c2CN(C)CC2CCCCN2)c1` (stereo not drawn) [Compound A-70, 6-(2-Fluoro-3,5-dimethyl-phenyl)-3-(3-hydroxy-phenyl)-5-[(methyl-piperidin-2-ylmethyl-amino)-methyl]-3H-pyrido[2,3-d]pyrimidin-4-one], the EC50 is 100 to 10000 nM in test [1]; less than 100 nM in test [2]; less than 100 nM in test [3]; 100 to 10000 nM in test [4]; less than 100 nM in test [5].

(Values after US9957267B2, “Somatostatin modulators and uses thereof” (Crinetics Pharmaceuticals, Inc., priority 2015, dated 2018).)
